Reference: patent US8916716B2, “Process for the preparation of crystalline form II of L-malic acid salt of sunitinib” (Ranbaxy Laboratories Limited, priority 2009, dated 2014)

Assays:
[1] = Moisture content by KF, initial and after storage; format: physicochemical
[2] = Solid form stability on storage, followed by XRPD; format: physicochemical; conditions: storage for about 20 days or more
Protocol: The XRPD of the samples were determined by using Panalytical X'Pert Pro X-Ray Powder Diffractometer in the range 3-40 degree 2 theta and under tube voltage and current of 45 Kv and 40 mA respectively. Copper radiation of wavelength 1.54 angstrom and Xceletor detector was used.
The solvent was evaporated at a temperature of about 60° C. to about 65° C. through spray drying.

[3] = described in WO 2009/104021; cited from earlier work

Moisture content by KF ([1]; after storage at 20° C. to 25° C. for 60 days) | moisture absorbed (level) ([1]; general statement on the stable Form II) | Moisture content by KF ([1]; initial) | Compound | conversion into any other solid form on storage [2] | conversion to another crystal form [3] | hygroscopicity [3] | thermodynamic stability [3]
5.52% | not more than 2% | 4.48% | CCN(CC)CCNC(=O)c1c(C)[nH]c(/C=C2\C(=O)Nc3ccc(F)cc32)c1C [Example 1, butanedioic acid, hydroxy-, (2S)—, compound with N-[2-(diethylamino)ethyl]-5-[(Z)-(5-fluoro-1,2-dihydro-2-oxo-3H-indol-3-ylidine)methyl]-2,4-dimethyl-1H-pyrrole-3-carboxamide (1:1)] | does not convert into any other solid form | – | – | –
– | – | – | CCN(CC)CCNC(=O)c1c(C)[nH]c(/C=C2\C(=O)Nc3ccc(F)cc32)c1C [Form II of sunitinib L-malate, butanedioic acid, hydroxy-, (2S)—, compound with N-[2-(diethylamino)ethyl]-5-[(Z)-(5-fluoro-1,2-dihydro-2-oxo-3H-indol-3-ylidine)methyl]-2,4-dimethyl-1H-pyrrole-3-carboxamide (1:1)] | – | appears to readily convert to Form I | hygroscopic | thermodynamically unstable
